Earlier results in article PMC6314896 (Chembiochem : a European journal of chemical biology, 2018).

Tested on: trypsin
Conditions: both toxins under the same conditions

Substance	stability to trypsin (in words)
ProTx-I	degraded rapidly
ProTx-II	completely stable
